From US20100184809A1, “Heterocyclic FXR Binding Compounds” (PHENEX PHARMACEUTICALS AG, priority 2006, published 2010)

Target: T1, human FXRalpha ligand binding domain (LBD) (Homo sapiens, UniProt Q96RI1)
T1 construct: made in house; host or cells: E. coli BL21(DE3), vector pDEST15
T1 sequence (Q96RI1 187-472 isoform Q96RI1-2): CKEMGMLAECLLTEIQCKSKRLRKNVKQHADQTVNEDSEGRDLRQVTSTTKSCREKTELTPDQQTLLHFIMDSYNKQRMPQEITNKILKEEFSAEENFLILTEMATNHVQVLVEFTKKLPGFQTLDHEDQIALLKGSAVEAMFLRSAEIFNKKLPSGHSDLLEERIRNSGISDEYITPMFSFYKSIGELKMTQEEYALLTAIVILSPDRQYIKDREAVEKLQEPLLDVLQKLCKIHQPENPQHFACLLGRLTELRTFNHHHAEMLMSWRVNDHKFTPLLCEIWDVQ
Assay: FRET activity assay (ligand mediated cofactor peptide interaction, LANCE)
Format: biochemical
Conditions: GST-FXR-LBD / biotinylated SRC-1 peptide (676-700)
Description: Determination of a ligand mediated cofactor peptide interaction to quantify ligand binding to the nuclear receptor Farnesoid X Receptor (FXR) was performed as follows:
Preparation of human farnesoid X receptor (FXR) alpha ligand binding domain: The human FXRalpha ligand binding domain (LBD) was expressed in E. coli strain BL21(DE3) as an N-terminally glutathione-[…] (GST) tagged fusion protein. The DNA encoding the FXR ligand binding domain was cloned into vector pDEST15 (Invitrogen). Expression was under control of an IPTG inducible T7 promoter. The amino acid boundaries of the ligand binding domain were amino acids 187-472 of Database entry NM_005123 (RefSeq). Expression and purification of the FXR-LBD: An overnight preculture of a transformed E. coli strain was diluted 1:20 in LB-Ampicillin medium and grown at 30° C. to an optical density of OD600=0.4-0.6. Gene expression was then induced by addition of 0.5 mM IPTG. Cells were incubated an additional 6 h at 30° C., 180 rpm. Cells were collected by centrifugation (7000×g, 7 min, room temperature). Per liter of original cell culture, cells were resuspended in 10 ml lysis buffer (50 mM Glucose, 50 mM Tris pH 7.9, 1 mM EDTA and 4 mg/ml lysozyme) and left on ice for 30 min. Cells were then subjected to sonication and cell debris removed via centrifugation (22000×g, 30 min, 4° C.). Per 10 ml of supernatant 0.5 ml prewashed Glutathione 4B sepharose slurry (Qiagen) was added and the suspension kept slowly rotating for 1 h at 4° C. Glutathione 4B sepharose beads were pelleted by centrifugation (2000 g, 15 sec, 4° C.) and washed twice in wash buffer (25 mM Tris, 50 mM KCl, 4 mM MgCl2 and 1M NaCl). The pellet was resuspended in 3 ml elution buffer per liter of original culture (elution buffer: 20 mM Tris, 60 mM KCl, 5 mM MgCl2 and 80 mM glutathione added immediately prior to use as powder). The suspension was left rotating for 15 min at 4° C., the beads pelleted and eluted again with half the volume of elution buffer than the first time. The eluates were pooled and dialysed overnight in 20 mM Hepes buffer (pH 7.5) containing 60 mM KCl, 5 mM MgCl2 as well as 1 mM dithiothreitol and 10% (v/v) glycerol. The protein was analysed by SDS-Page.
The method measures the ability of putative ligands to modulate the interaction between the purified bacterial expressed FXR ligand binding domain (LBD) and a synthetic biotinylated peptide based on residues 676-700 of SRC-1 (LCD2, 676-700). The sequence of the peptide used was B-[…]-COOH where the N-terminus was biotinylated (B). The ligand binding domain (LBD) of FXR was expressed as fusion protein with GST in BL-21 cells using the vector pDEST15. Cells were lysed by sonication, and the fusion proteins purified over glutathione sepharose (Pharmacia) according to the manufacturers instructions. For screening of compounds for their influence on the FXR-peptide interaction, the Perkin Elmer LANCE technology was applied. This method relies on the binding dependent energy transfer from a donor to an acceptor fluorophor attached to the binding partner of interest. For ease of handling and reduction of background from compound fluorescence LANCE technology makes use of generic fluorophore labels and time resolved detection Assays were done in a final volume of 2 5 μl in a 384 well plate, in a Tris-based buffer (20 mM Tris-HCl pH 7,5; 60 mM KCl, 5 mM MgCl2; 35 ng/μl BSA), containing 20-60 ng/well recombinantly expressed FXR-LBD fused to GST, 200-600 nM N-terminally biotinylated peptide, representing SRC1 aminoacids 676-700, 200 ng/well Streptavidin-xIAPC conjugate(Prozyme) and 6-10 ng/well Eu W1024 antiGST (Perkin Elmer). DMSO content of the samples was kept at 1%. After generation of the assay mix and diluting the potentially FXR modulating ligands, the assay was equilibrated for one hour in the dark at room temperature in FIA-plates black 384 well (Greiner). […]

| SMILES | IC50 [nM] |
| --- | --- |
| CC(C)c1onc(-c2c(Cl)cccc2Cl)c1COc1ccc(N(C)Cc2ccc(C(=O)OCC(O)CO)cc2)c(C(F)(F)F)n1 (stereo not drawn) [Example 34, 2,3-Dihydroxypropyl 4-(((6-((3-(2,6-dichlorophenyl)-5-isopropylisoxazol-4-yl)methoxy)-2-(trifluoromethyl)pyridin-3-yl)(methyl)amino)methyl)benzoate] | ≤ 1000 |
| Cc1nc(OCc2c(-c3c(Cl)cccc3Cl)noc2C(C)C)ccc1N(C)C(=O)c1ccc(C(=O)O)cc1 [Example 2, 4-((6-((3-(2,6-Dichlorophenyl)-5-isopropylisoxazol-4-yl)methoxy)-2-methylpyridin-3-yl)(methyl)carbamoyl)benzoic acid] | ≤ 1000 |
| Cc1onc(-c2c(Cl)cccc2Cl)c1COc1ccc(NC(=O)c2ccc(C(=O)O)cc2)cn1 [Example 16, 4-(6-((3-(2,6-dichlorophenyl)-5-methylisoxazol-4-yl)methoxy)pyridin-3-ylcarbamoyl)benzoic acid] | 1000 to 10000 |
| Cc1cc(OCc2c(-c3c(Cl)cccc3Cl)noc2C(C)C)ncc1NC(=O)c1ccc(C(=O)O)cc1 [Example 14] | ≤ 1000 |
| CC(C)c1onc(-c2c(Cl)cccc2Cl)c1COc1ccc(N(C)Cc2ccc(C(=O)NCCO)cc2)c(C(F)(F)F)n1 [Example 36, 4-(((6-((3-(2,6-Dichlorophenyl)-5-isopropylisoxazol-4-yl)methoxy)-2-(trifluoromethyl)pyridin-3-yl)(methyl)amino)methyl)-N-(2-hydroxyethyl)benzamide] | ≤ 1000 |
| CC(C)c1onc(-c2c(Cl)cccc2Cl)c1COc1ccc(N(C)Cc2ccc(C(=O)OCCO)cc2)c(C(F)(F)F)n1 [Example 33, 2-Hydroxyethyl 4-(((6-((3-(2,6-dichlorophenyl)-5-isopropylisoxazol-4-yl)methoxy)-2-(trifluoromethyl)pyridin-3-yl)(methyl)amino)methyl)benzoate] | ≤ 1000 |
| Cc1nc(OCc2c(-c3c(Cl)cccc3Cl)noc2C(C)C)ccc1NS(=O)(=O)c1ccc(C(=O)O)cc1 [Example 3, 4-{6-[3-(2,6-Dichloro-phenyl)-5-isopropyl-isoxazol-4-ylmethoxy]-2-methyl-pyridin-3-ylsulfamoyl}-benzoic acid] | ≤ 1000 |
| COc1nc(OCc2c(-c3c(Cl)cccc3Cl)noc2C(C)C)ccc1N(C)C(=O)c1ccc(C(=O)O)cc1 [Example 11, N-{6-[3-(2,6-dichloro-phenyl)-5-isopropyl-isoxazol-4-ylmethoxy]-2-methoxy-pyridin-3-yl}-N-methyl-terephthalamic acid] | 1000 to 10000 |
| COC(=O)c1ccc(C(=O)Nc2ccc(OCc3c(-c4c(Cl)cccc4Cl)noc3C(C)C)nc2C(F)(F)F)cc1 [Example 5, N-{6-[3-(2,6-dichloro-phenyl)-5-isopropyl-isoxazol-4-ylmethoxy]-2-trifluoromethyl-pyridin-3-yl}-terephthalamic acid methyl ester] | 1000 to 10000 |
| CC(C)c1onc(-c2c(Cl)cccc2Cl)c1COc1ccc(N(C)C(=O)c2cccc(C(=O)O)c2)c(C(F)(F)F)n1 [Example 22, 3-((6-((3-(2,6-Dichlorophenyl)-5-isopropylisoxazol-4-yl)methoxy)-2-(trifluoromethyl)pyridin-3-yl)(methyl)carbamoyl)benzoic acid] | ≤ 1000 |
| Cc1nc(OCc2c(-c3c(Cl)cccc3Cl)noc2C(C)C)ccc1NC(=O)c1ccc(C(=O)O)cc1 [Example 1, N-{6[3-(2,6-dichloro-phenyl)-5-isopropyl-isoxazol-4-ylmethoxy]-2-methyl-pyridin-3-yl}-terephthalamic acid] | ≤ 1000 |
| CC(C)c1onc(-c2c(Cl)cccc2Cl)c1COc1ccc(NS(=O)(=O)c2ccc(C(=O)O)cc2)c(C(F)(F)F)n1 [Example 8, 4-{6-[3-(2,6-dichloro-phenyl)-5-isopropyl-isoxazol-4-ylmethoxy]-2-trifluoromethyl-pyridin-3-ylsulfamoyl}-benzoic acid] | 1000 to 10000 |
| COc1nc(OCc2c(-c3c(Cl)cccc3Cl)noc2C(C)C)ccc1NS(=O)(=O)c1ccc(C(=O)O)cc1 [Example 12, 4-{6[3-(2,6-dichloro-phenyl)-5-isopropyl-isoxazol-4-ylmethoxy]-2-methoxy-pyridin-3-ylsulfamoyl}-benzoic acid] | ≤ 1000 |
| COc1nc(OCc2c(-c3c(Cl)cccc3Cl)noc2C(C)C)ccc1NC(=O)c1ccc(C(=O)O)cc1 [Example 10, N-{6-[3-(2,6-dichloro-phenyl)-5-isopropyl-isoxazol-4-ylmethoxy]-2-methoxy-pyridin-3-yl}-terephthalamic acid] | ≤ 1000 |
| COC(=O)c1cccc(C(=O)Nc2ccc(OCc3c(-c4c(Cl)cccc4Cl)noc3C(C)C)nc2C(F)(F)F)c1 [Example 20, N-(6-[3-(2,6-Dichloro-phenyl)-5-isopropyl-isoxazol-4-ylmethoxy]-2-trifluoromethyl-pyridin-3-yl)-isophthalamic acid methyl ester] | 1000 to 10000 |
| CC(C)c1onc(-c2c(Cl)cccc2Cl)c1COc1ccc(N(C)Cc2ccc(C(=O)NCCN(C)C)cc2)c(C(F)(F)F)n1 [Example 37, 4-(((6-((3-(2,6-Dichlorophenyl)-5-isopropylisoxazol-4-yl)methoxy)-2-(trifluoromethyl)pyridin-3-yl)(methyl)amino)methyl)-N-(2-(dimethylamino)ethyl)benzamide] | ≤ 1000 |
| Cc1onc(-c2c(Cl)cccc2Cl)c1COc1ccc(NS(=O)(=O)c2ccc(C(=O)O)cc2)cn1 [Example 18, 4-(N-(6-((3-(2,6-dichlorophenyl)-5-methylisoxazol-4-yl)methoxy)pyridin-3-yl)sulfamoyl)benzoic acid] | 1000 to 10000 |
| CC(C)c1onc(-c2c(Cl)cccc2Cl)c1COc1cnc(N(C)Cc2ccc(C(=O)O)cc2)c(Cl)c1 [Example 31, 4-(((3-Chloro-5-((3-(2,6-dichlorophenyl)-5-isopropylisoxazol-4-yl)methoxy)pyridin-2-yl)(methyl)amino)methyl)benzoic acid] | ≤ 1000 |
| Cc1onc(-c2c(Cl)cccc2Cl)c1COc1ccc(NS(=O)(=O)c2cccc(C(=O)O)c2)cn1 [Example 17, 3-(N-(6-((3-(2,6-dichlorophenyl)-5-methylisoxazol-4-yl)methoxy)pyridin-3-yl)sulfamoyl)benzoic acid] | 1000 to 10000 |
| CC(C)c1onc(-c2c(Cl)cccc2Cl)c1COc1ccc(N(C)Cc2ccc(C(=O)NCC(O)CO)cc2)c(C(F)(F)F)n1 (stereo not drawn) [Example 35, 4-(((6-((3-(2,6-Dichlorophenyl)-5-isopropylisoxazol-4-yl)methoxy)-2-(trifluoromethyl)pyridin-3-yl)(methyl)amino)methyl)-N-(2,3-dihydroxypropyl)benzamide] | ≤ 1000 |
| COc1nc(OCc2c(-c3c(Cl)cccc3Cl)noc2C(C)C)ccc1N(C)S(=O)(=O)c1ccc(C(=O)O)cc1 [Example 13, 4-({6-[3-(2,6-dichloro-phenyl)-5-isopropyl-isoxazol-4-ylmethoxy]-2-methoxy-pyridin-3-yl}-methyl-sulfamoyl)-benzoic acid] | ≤ 1000 |
